Results from the supplement of paper PMC8967900.

What was measured:
Assay in all cases: selective drug sensitivity score (sDSS, relative to normal bone marrow) (sDSS (score)); higher = more potent and effective on the cell line relative to normal bone marrow cells
Conditions in all cases: 72 h
[1] = tested on: ALL-SIL
[2] = tested on: CCRF-CEM
[3] = tested on: COG-LL-317
[4] = tested on: COG-LL-355h
[5] = tested on: HAL-01
[6] = tested on: JURKAT
[7] = tested on: KARPAS-45
[8] = tested on: KOPN-8
[9] = tested on: LC4-1
[10] = tested on: MHH-CALL-3
[11] = tested on: MHH-CALL-4
[12] = tested on: MOLT-14
[13] = tested on: MOLT-16
[14] = tested on: NALL-1
[15] = tested on: P30-OHKUBO
[16] = tested on: PF-382
[17] = tested on: RCH-ACV
[18] = tested on: RPMI-8402
[19] = tested on: SEM cells
[20] = tested on: TANOUE
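Further: ALL cell lines in 384-well plates, five doses spanning 10,000-fold, each plate scaled between vehicle and 100 µmol/L benzalkonium chloride controls, sDSS an adapted area-under-curve metric.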

Row | SMILES | selective drug sensitivity score [1] | selective drug sensitivity score [2] | selective drug sensitivity score [3] | selective drug sensitivity score [4] | selective drug sensitivity score [5] | selective drug sensitivity score [6] | selective drug sensitivity score [7] | selective drug sensitivity score [8] | selective drug sensitivity score [9] | selective drug sensitivity score [10] | selective drug sensitivity score [11] | selective drug sensitivity score [12] | selective drug sensitivity score [13] | selective drug sensitivity score [14] | selective drug sensitivity score [15] | selective drug sensitivity score [16] | selective drug sensitivity score [17] | selective drug sensitivity score [18] | selective drug sensitivity score [19] | selective drug sensitivity score [20]
1 | CN1CC[C@H](c2c(O)cc(O)c3c(=O)cc(-c4ccccc4Cl)oc23)[C@H](O)C1 [Alvocidib] (top concentration 10000 nM) | -3.3 | 0.6 | 1.7 | -0.1 | -3.5 | -2.6 | 2 | -1.2 | -3.3 | -3.6 | -3.8 | 1.3 | 0.7 | -7.1 | 1.1 | -3.3 | 2.7 | -1 | -3.5 | -11
2 | CC(C)c1c(C(=O)Nc2ccccc2)c(-c2ccccc2)c(-c2ccc(F)cc2)n1CC[C@@H](O)C[C@@H](O)CC(=O)O [Atorvastatin] (top concentration 10000 nM) | 4.2 | 0.3 | 8 | 4.2 | -1.9 | -3.7 | 3.5 | 6.6 | 4.9 | -3.7 | 0.1 | -0.9 | 2 | 0.1 | -2.2 | -1 | -1 | 2.9 | 0.4 | -3.7
3 | Nc1ncn([C@@H]2O[C@H](CO)[C@@H](O)[C@H]2O)c(=O)n1 [Azacitidine] (top concentration 10000 nM) | 5.94 | 9.34 | 7.74 | 5.14 | 3.84 | 4.04 | -1.16 | 8.74 | 6.04 | 4.24 | 6.14 | 9.04 | 7.14 | 4.14 | 6.54 | 4.44 | 5.24 | 3.34 | 8.74 | -0.86
4 | Cc1cc(-c2nc(-c3ccc(OC(F)(F)F)cc3)no2)nn1Cc1ccnc(N2CCN(C3CC3)CC2)c1 [BAY_87-2243] (top concentration 1000 nM) | 10.1 | 6.34 | -0.96 | 10.8 | -0.66 | 30.1 | 16.5 | 6.34 | 3.84 | -6.36 | 11.9 | 8.64 | 22.9 | 0.04 | 6.44 | 16.9 | 14.4 | 28 | 6.84 | 25.2
5 | O=C(Nc1cccc(Nc2ncc(Br)c(NCCc3cnc[nH]3)n2)c1)N1CCCC1 [BX-912] (top concentration 10000 nM) | 9.36 | 9.96 | 9.46 | 1.36 | -3.64 | -1.34 | 3.56 | 12.4 | 12.3 | 3.06 | 3.06 | 9.36 | 9.06 | 7.36 | 10.9 | 5.06 | 13.3 | 3.36 | 13.4 | -7.04
6 | C=C(c1ccc(C(=O)O)cc1)c1cc2c(cc1C)C(C)(C)CCC2(C)C [Bexarotene] (top concentration 10000 nM) | -4.2 | -3.4 | -5.1 | -5.1 | -0.9 | -2.7 | -1.8 | 8 | 0.2 | 10.2 | 3.3 | 0.4 | 1.7 | -4.5 | -5.3 | -4.6 | -5.1 | -4 | 2.9 | -5.3
7 | Cn1cnc2c(F)c(Nc3ccc(Br)cc3F)c(C(=O)NOCCO)cc21 [Binimetinib] (top concentration 1000 nM) | -1.02 | 1.38 | -2.12 | 5.58 | 8.28 | -2.02 | -1.82 | 10.3 | 2.18 | 7.18 | 4.98 | 4.38 | -0.42 | -2.22 | -2.22 | -1.82 | -2.22 | -2.22 | -2.22 | -0.82
8 | COc1cc(N2CCC(N3CCN(C)CC3)CC2)ccc1Nc1ncc(Cl)c(Nc2ccccc2P(C)(C)=O)n1 [Brigatinib] (top concentration 1000 nM) | -3.34 | -3.34 | -2.34 | 2.86 | 6.06 | -3.34 | -1.74 | -3.34 | -0.94 | -3.34 | -3.34 | 3.16 | -3.34 | -3.34 | -3.34 | -2.84 | 8.86 | -2.44 | 4.06 | -3.34
9 | CC1=NN(c2ccc(C(=O)O)cc2)C(=O)C1=Cc1ccc(-c2cc(C)c(C)cc2[N+](=O)[O-])o1 [C646] (top concentration 25000 nM) | 6.14 | 1.74 | 1.74 | 4.44 | -2.06 | 0.94 | 1.74 | 2.44 | 1.84 | 4.64 | -2.06 | 3.84 | 4.84 | -2.06 | 3.94 | 0.64 | 1.94 | -2.06 | -0.26 | -2.06
10 | CCN1C(=O)CNc2ncc(-c3ccc(-c4nc[nH]n4)nc3C)nc21 [CC-115] (top concentration 10000 nM) | 1.34 | 4.24 | 0.54 | 1.44 | 2.54 | 1.24 | 1.34 | 17.5 | 4.54 | 1.34 | 7.34 | 1.24 | 4.74 | 4.24 | 2.94 | 2.14 | 17.5 | 0.94 | 0.04 | -5.46
11 | Cc1noc2c1-c1ccccc1C(c1ccc(Cl)cc1)=N[C@H]2CC(N)=O [CPI-0610] (top concentration 10000 nM) | -0.6 | -0.1 | 3.3 | 10.3 | -2.2 | -0.2 | 6.7 | 11.1 | 3.6 | 17.9 | -4.1 | 0.3 | 6.7 | -4.4 | 6.1 | 3.5 | 10.9 | 4.4 | 7.5 | -5.8
12 | Cc1cc(Nc2ncc(Cl)c(Nc3ccccc3S(=O)(=O)C(C)C)n2)c(OC(C)C)cc1C1CCNCC1 [Ceritinib] (top concentration 2500 nM) | 4.36 | -3.34 | -3.44 | 2.86 | -1.44 | -3.44 | -2.54 | -3.44 | 3.06 | -3.44 | -0.74 | -3.44 | -3.44 | -2.14 | -2.44 | -3.24 | -2.04 | -1.84 | -3.44 | -3.44
13 | Nc1nc(Cl)nc2c1ncn2[C@@H]1O[C@H](CO)[C@@H](O)[C@@H]1F [Clofarabine] (top concentration 10000 nM) | 4.9 | 8.2 | 7.1 | 3 | 2.7 | 1.9 | -22.6 | 6.7 | 9.2 | 10.9 | 6.5 | 11.4 | 4.4 | 1.8 | 10.3 | 1.8 | 6.8 | 3.5 | 7 | -18.6
14 | CC1(COc2ccc3c(c2)ncn3-c2ccc3cccc(N4CCC(N)CC4)c3n2)COC1 [Crenolanib] (top concentration 10000 nM) | 0.28 | -1.82 | 2.08 | 0.48 | -1.82 | -1.12 | 1.28 | 0.68 | -3.92 | -5.32 | 0.68 | -1.22 | -0.22 | 1.58 | -2.72 | 0.08 | -1.12 | -2.72 | 13.9 | -9.32
15 | Cc1nc(Nc2ncc(C(=O)Nc3c(C)cccc3Cl)s2)cc(N2CCN(CCO)CC2)n1 [Dasatinib] (top concentration 1000 nM) | 41.4 | -2.8 | -0.7 | -2.8 | -2.8 | -2.8 | 1.7 | 0.4 | -2.8 | -2.8 | -2.8 | 4.2 | -2.8 | -2.8 | 6.1 | 10.8 | 21.5 | -0.8 | -2.4 | -2.8
16 | CCc1cnn2c(NCc3ccc[n+]([O-])c3)cc(N3CCCC[C@H]3CCO)nc12 [Dinaciclib] (top concentration 1000 nM) | -1.74 | -2.54 | 1.26 | -4.14 | -5.74 | -5.64 | -0.34 | -6.34 | -3.64 | 1.76 | -4.04 | -3.24 | -2.24 | -6.24 | 0.26 | -5.94 | -0.64 | -2.64 | -4.34 | -14.3
17 | COc1cccc2c1C(=O)c1c(O)c3c(c(O)c1C2=O)C[C@@](O)(C(=O)CO)C[C@@H]3O[C@H]1C[C@H](N)[C@H](O)[C@H](C)O1 [Doxorubicin] (top concentration 1000 nM) | 1.68 | 7.28 | 15 | 3.98 | 1.38 | 2.78 | 0.78 | 13.3 | 5.48 | 14.8 | 9.08 | 13.8 | 16.1 | -1.92 | 5.18 | 3.08 | 10.6 | 5.58 | 4.08 | -7.62
